Test results from patent US7691848B2, “Pyrrolobenzodiazepine arylcarboxamides and derivatives thereof as follicle-stimulating hormone receptor antagonists” (Wyeth, priority 2005, dated 2010).

Assays:
human FSH receptor = molecular target: T1, human FSH receptor (Homo sapiens, UniProt P23945); experiment: Follicle-Stimulating Hormone Receptor-Dependent Cre-Luciferase Reporter Gene Assay (CHO FSH-R 6CRE-Luc cells); format: cell-based; conditions: for inhibition at 30 µM: 2-dose format, concentration in parentheses 30 μM, inhibition of the response to EC50 of FSH; for IC50: dose-response format, in presence of EC50 of purified human FSH
T1 construct: host or cells: CHO-K1 (CHO FSH-R 6CRE-Luc, 1D7 cells)
T1 sequence (P23945 18-695): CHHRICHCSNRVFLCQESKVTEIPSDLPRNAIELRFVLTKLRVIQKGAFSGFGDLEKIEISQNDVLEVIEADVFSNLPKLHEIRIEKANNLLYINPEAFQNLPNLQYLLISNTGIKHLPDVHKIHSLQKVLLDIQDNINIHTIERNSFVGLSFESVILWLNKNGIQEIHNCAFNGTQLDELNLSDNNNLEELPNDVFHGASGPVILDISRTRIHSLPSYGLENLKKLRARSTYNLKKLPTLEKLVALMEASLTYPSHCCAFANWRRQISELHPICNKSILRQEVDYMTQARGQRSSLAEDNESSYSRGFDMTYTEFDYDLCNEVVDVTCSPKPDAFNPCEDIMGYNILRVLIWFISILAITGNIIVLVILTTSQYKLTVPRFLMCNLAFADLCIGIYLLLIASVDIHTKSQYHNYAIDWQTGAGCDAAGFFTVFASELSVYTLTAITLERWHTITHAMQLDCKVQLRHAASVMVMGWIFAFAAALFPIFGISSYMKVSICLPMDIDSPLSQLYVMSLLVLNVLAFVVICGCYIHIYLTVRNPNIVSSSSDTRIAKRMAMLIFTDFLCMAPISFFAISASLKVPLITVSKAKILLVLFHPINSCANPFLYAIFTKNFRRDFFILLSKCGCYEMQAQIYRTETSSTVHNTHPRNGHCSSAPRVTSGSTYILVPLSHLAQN
Text: Follicle-Stimulating Hormone Receptor-Dependent Cre-Luciferase Reporter Gene Assay for the Identification of Follicle-Stimulating Hormone (FSH) Antagonists
A Chinese hamster ovarian cell line that stably produces the human FSH receptor and a luciferase reporter gene regulated by cAMP response elements was used to identify and determine the relative potencies of human FSH receptor antagonists. See for example, Kelton, C. A., et al. Mol. Cell. Endocrinol. 89:141-151 (1992), Tilly, J. L., et al. Endocrinology 131:799-806(1992), and George, S. E., et al. J. Biomol. Screening 2:235-240 (1997).
Compound Vehicle: Stock compounds were solubilized in an appropriate vehicle, e.g., phosphate buffered saline (PBS) or dimethyl sulfoxide (DMSO), at 30 mM. The compounds were subsequently diluted in DMSO to working dilutions of 1 and 20 or 30 mM for 2-dose testing format and 1 μM-10 mM for dose-response format. The DMSO dilutions were diluted 500-fold in sterile growth medium [D-MEM/F-12 (GIBCO/BRL; Grand Island, NY) containing 15 mM HEPES, 2 mM 1-glutamine, pyridoxine hydrochloride, phenol red and 5% FetalClone® II (HyClone Laboratories, Inc; Logan, Utah), 0.2% DMSO, 100 units penicillin G/ml, and 100 μg streptomycin sulfate/ml (GIBCO/BRL)]. The concentration of the vehicle in each of the compound dilutions was the same.
Positive Controls: Purified human FSH (>98%) was purchased from Cortex Biochem, Inc. (San Leandro, Calif.) and 3-[(2S*,5R*)-5-{[2-(1H-Indol-3-yl)-ethylcarbamoyl]-methyl}-4-oxo-2-(5-phenylethynyl-thiophen-2-yl)-thiazolidin-3-yl]-benzamide (an FSH-R thiazolidinone antagonist) was prepared by processes described by R. A. Scheuerman et al. in U.S. Pat. No. 6,426,357 (Affymax).
The CHO FSH-R 6CRE-Luc cells (1D7 cells) were obtained from Affymax (Palo Alto, Calif.). These Chinese hamster ovary cells (CHO-K1) were engineered genetically to stably express the recombinant human FSH receptor gene and a luciferase reporter gene under the regulation of 6 copies of a cAMP response element. The cells were plated one day prior to treatment into 96-well white opaque plates at a density of 50,000 cells/100 μl/well in growth medium. On the day of treatment, the growth medium was removed from the wells by aspiration and 50 μl of fresh growth medium was added to each well. The cells were incubated at 37° C. in a humidified incubator with 5% CO2/95% air.
The treated cells were incubated for 4 hours at 37° C. in a humidified incubator with 5% CO2/95% air. At the end of the incubation period, luciferase activity was measured by chemiluminescence using a commercially available kit (LucScreen, Tropix, Inc., Bedford, Mass.) according to the manufacturer's specifications, except that Buffer 1 and Buffer 2 were mixed together in equal proportion prior to the addition of 100 μl of the combined reagents to each well. Chemiluminescence was detected using a luminometer (EG & G Berthold Microlumat LB 96 P, Wallac, Gaithersburg, Md.) with chemiluminescence measured for 1 sec/well. Background luminescence was measured for each well prior to the addition of the LucScreen reagent.
In the 96-well 2-dose format, each compound was tested in duplicate at each dose. […] One plate was used to test a maximum of 22 compounds.
The EC50 of purified human FSH alone was tested in triplicate with each test compound. The doses chosen to test each compound were extrapolated from the initial 2-dose screening process. Along with the test compounds, purified human FSH also was tested in a dose response (0.03, 0.1, 0.3, 1, 3, 10, and 30 ng/ml) for a positive control and quality control. One plate was used for 3 test compounds and the FSH positive control.
Luciferase activity is expressed as relative light units/sec/well. Luciferase activity in antagonist was compared to the appropriate negative and positive controls. For 2-dose testing, results are reported as luciferase activity and are expressed as percent inhibition of the response obtained from the EC50 of FSH.

| SMILES | inhibition at 30 µM (human FSH receptor) | melting point | IC50 (human FSH receptor) |
| --- | --- | --- | --- |
| COc1cc(C(=O)N2Cc3ccc(C(=O)NCc4ccc(Cl)cc4)n3Cc3ccccc32)ccc1-c1ccccc1C [Example 43, N-(4-CHLOROBENZYL)-10-[(2-METHOXY-2′-METHYL-1,1′-BIPHENYL-4-YL)CARBONYL]-10,11-DIHYDRO-5H-PYRROLO[2,1-C][1,4]BENZODIAZEPINE-3-CARBOXAMIDE] | 56% | 218 to 219 °C | – |
| COc1cc(C(=O)N2Cc3ccc(C(=O)NCCCc4ccccc4)n3Cc3ccccc32)ccc1-c1ccccc1C [Example 54, 10-[(2-METHOXY-2′-METHYL-1,1′-BIPHENYL-4-YL)CARBONYL]-N-(3-PHENYLPROPYL)-10,11-DIHYDRO-5H-PYRROLO[2,1-C][1,4]BENZODIAZEPINE-3-CARBOXAMIDE] | 46% | 191 °C | – |
| COc1ccc(CCNC(=O)c2ccc3n2Cc2ccccc2N(C(=O)c2ccc(-c4ccccc4C)c(OC)c2)C3)cc1OC [Example 52, N-[2-(3,4-DIMETHOXYPHENYL)ETHYL]-10-[(2-METHOXY-2′-METHYL-1,1′-BIPHENYL-4-YL)CARBONYL]-10,11-DIHYDRO-5H-PYRROLO[2,1-C][1,4]BENZODIAZEPINE-3-CARBOXAMIDE] | – | 150 to 154 °C | > 30 µM |
| Cc1ccccc1-c1ccc(C(=O)N2Cc3ccc(C(=O)NCCc4cccc(Cl)c4)n3Cc3ccccc32)cc1C [Example 26] | 62% | 174 to 176 °C | – |
| COc1cc(C(=O)N2Cc3ccc(C(=O)NC4Cc5ccccc5C4)n3Cc3ccccc32)ccc1-c1ccccc1C [Example 65, N-(2,3-DIHYDRO-1H-INDEN-2-YL)-10-[(2-METHOXY-2′-METHYL-1,1′-BIPHENYL-4-YL)CARBONYL]-10,11-DIHYDRO-5H-PYRROLO[2,1-C][1,4]BENZODIAZEPINE-3-CARBOXAMIDE] | – | 230 to 231 °C | > 30 µM |
| CCOC(=O)c1cccc(NC(=O)c2ccc3n2Cc2ccccc2N(C(=O)COc2ccc(Cl)cc2)C3)c1 [Example 99, ETHYL 3-[({10-[(4-CHLOROPHENOXY)ACETYL]-10,11-DIHYDRO-5H-PYRROLO[2,1-C][1,4]BENZODIAZEPIN-3-YL}CARBONYL)AMINO]BENZOATE] | – | 179 to 180 °C | > 30 µM |
| COC(=O)c1ccc(CNC(=O)c2ccc3n2Cc2ccccc2N(C(=O)COc2ccc(Cl)cc2C)C3)cc1 [Example 77, METHYL 4-{[({10-[(4-CHLORO-2-METHYLPHENOXY)ACETYL]-10,11-DIHYDRO-5H-PYRROLO[2, 1-C][1,4]BENZODIAZEPIN-3-YL}CARBONYL)AMINO]METHYL}BENZOATE] | 3.5% | 165 to 167 °C | – |
| COC(=O)c1ccc(NC(=O)c2ccc3n2Cc2ccccc2N(C(=O)COc2ccc(Cl)cc2)C3)cc1OC [Example 95, METHYL 4-[({10-[(4-CHLOROPHENOXY)ACETYL]-10,11-DIHYDRO-5H-PYRROLO[2,1-C][1,4]BENZODIAZEPIN-3-YL}CARBONYL)AMINO]-2-METHOXYBENZOATE] | – | 172 to 174 °C | > 30 µM |
| Cc1ccccc1-c1ccc(C(=O)N2Cc3ccc(C(=O)NCc4ccc(N(C)C)cc4)n3Cc3ccccc32)cc1C [Example 91] | – | 154 to 155 °C | > 30 µM |
| COc1ccc(CCNC(=O)c2ccc3n2Cc2ccccc2N(C(=O)c2ccc(-c4ccccc4C)c(C)c2)C3)cc1 [Example 30] | 62% | 170 to 172 °C | – |
| Cc1cc(-c2ccccc2C)ccc1NC(=O)c1ccc2n1Cc1ccccc1N(C(=O)COc1ccc(Cl)cc1)C2 [Example 79] | 13% | 159 to 161 °C | – |
| O=C1c2cc(Br)ccc2-c2ccc(NC(=O)c3ccc4n3Cc3ccccc3N(C(=O)COc3ccc(Cl)cc3)C4)cc21 [Example 103, N-(7-BROMO-9-OXO-9H-FLUOREN-2-YL)-10-[(4-CHLOROPHENOXY)ACETYL]-10,11-DIHYDRO-5H-PYRROLO[2,1-C][1,4]BENZODIAZEPINE-3-CARBOXAMIDE] | – | 277 to 278 °C | > 30 µM |
| Cc1ccccc1-c1ccc(C(=O)N2Cc3ccc(C(=O)NCc4ccccc4C(F)(F)F)n3Cc3ccccc32)cc1C [Example 24] | – | 126 to 128 °C | > 30 µM |
| O=C(Nc1ccc2c(c1)C(O)c1ccccc1-2)c1ccc2n1Cc1ccccc1N(C(=O)COc1ccc(Cl)cc1)C2 (stereo not shown) [Example 97, 10-[(4-CHLOROPHENOXY)ACETYL]-N-(9-HYDROXY-9H-FLUOREN-2-YL)-10,11-DIHYDRO-5H-PYRROLO[2,1-C][1,4]BENZODIAZEPINE-3-CARBOXAMIDE] | – | 176 to 182 °C | > 30 µM |
| COc1cc(C(=O)N2Cc3ccc(C(=O)NCC(c4ccccc4)c4ccccc4)n3Cc3ccccc32)ccc1-c1ccccc1C [Example 50] | – | 129 to 132 °C | > 30 µM |
| O=C(Nc1ccc(-c2ccccc2)cc1)c1ccc2n1Cc1ccccc1N(C(=O)COc1ccc(Cl)cc1)C2 [Example 74, N-(1,1′-BIPHENYL-4-YL)-10-[(4-CHLOROPHENOXY)ACETYL]-10,11-DIHYDRO-5H-PYRROLO[2,1-C][1,4]BENZODIAZEPINE-3-CARBOXAMIDE] | 6% | 201 to 202 °C | – |
| O=C(NCCc1ccc(O)cc1)c1ccc2n1Cc1ccccc1N(C(=O)CSc1ccc(Br)cc1)C2 [Example 86, 10-{[(4-BROMOPHENYL)THIO]ACETYL}-N-[2-(4-HYDROXYPHENYL)ETHYL]-10,11-DIHYDRO-5H-PYRROLO[2,1-C][1,4]BENZODIAZEPINE-3-CARBOXAMIDE] | 35% | 168 to 169 °C | – |
| COc1cc(C(=O)N2Cc3ccc(C(=O)NCc4ccc(C)cc4C)n3Cc3ccccc32)ccc1-c1ccccc1C [Example 46, N-(2,4-DIMETHYLBENZYL)-10-[(2-METHOXY-2′-METHYL-1,1′-BIPHENYL-4-YL)CARBONYL]-10,11-DIHYDRO-5H-PYRROLO[2,1-C][1,4]BENZODIAZEPINE-3-CARBOXAMIDE] | 44% | 161 to 162 °C | – |
| O=C(NCC(O)c1ccccc1)c1ccc2n1Cc1ccccc1N(C(=O)COc1ccc(Cl)cc1)C2 (stereo not shown) [Example 73] | – | 157 to 158 °C | 25.1 µM |
| O=C(NCc1ccc2c(c1)OCO2)c1ccc2n1Cc1ccccc1N(C(=O)CSc1ccc(Br)cc1)C2 [Example 84] | 27% | 154 to 155 °C | – |
